From patent US20220249441A1, “Homodimeric Tobramycin Adjuvant Repurposes Novobiocin as an Effective Antibacterial Agent Against Gram-Negative Bacteria” (priority 2019, published 2022)

Tested on: porcine erythrocytes
Description: Hemolytic Assay. The hemolytic activities of the newly synthesized compounds were determined and quantified as the amount of hemoglobin released by lysing porcine erythrocytes. […] The final cell concentration used was 3×10^8 cells/mL. Compounds were serially diluted with PBS and added to wells in a 96-well plate at twice the desired concentrations. […] Intact erythrocytes were subsequently pelleted by centrifuging at 1000 g at 4° C. for 10 mins, and the supernatants were transferred to a new 96-well plate. […] Blood cells in PBS (0% hemolysis) and 0.1% Triton X-100 (100% hemolysis) were used as negative and positive controls, respectively. Percent hemolysis was calculated as [% hemolysis=(X−0%)/(100%−0%)], where X is the optical density values of the compounds at different concentrations (49).

| Structure (SMILES) | hemolysis of porcine erythrocytes |
| --- | --- |
| NC[C@H]1O[C@H](O[C@H]2[C@H](OCCCCCCn3cc(CCCCO[C@@H]4[C@@H](O[C@H]5O[C@H](CO)[C@@H](O)[C@H](N)[C@H]5O)[C@H](N)C[C@H](N)[C@H]4O[C@H]4O[C@H](CN)[C@@H](O)C[C@H]4N)nn3)[C@@H](O[C@H]3O[C@H](CO)[C@@H](O)[C@H](N)[C@H]3O)[C@H](N)C[C@@H]2N)[C@H](N)C[C@@H]1O.O=C(O)C(F)(F)F.O=C(O)C(F)(F)F.O=C(O)C(F)(F)F.O=C(O)C(F)(F)F.O=C(O)C(F)(F)F.O=C(O)C(F)(F)F.O=C(O)C(F)(F)F.O=C(O)C(F)(F)F.O=C(O)C(F)(F)F.O=C(O)C(F)(F)F [Compound 2, Tobramycin Homodimer 2] | non-hemolytic |
| NC[C@H]1O[C@H](O[C@H]2[C@H](OCCCCCCCCn3cc(CCCCO[C@@H]4[C@@H](O[C@H]5O[C@H](CO)[C@@H](O)[C@H](N)[C@H]5O)[C@H](N)C[C@H](N)[C@H]4O[C@H]4O[C@H](CN)[C@@H](O)C[C@H]4N)nn3)[C@@H](O[C@H]3O[C@H](CO)[C@@H](O)[C@H](N)[C@H]3O)[C@H](N)C[C@@H]2N)[C@H](N)C[C@@H]1O.O=C(O)C(F)(F)F.O=C(O)C(F)(F)F.O=C(O)C(F)(F)F.O=C(O)C(F)(F)F.O=C(O)C(F)(F)F.O=C(O)C(F)(F)F.O=C(O)C(F)(F)F.O=C(O)C(F)(F)F.O=C(O)C(F)(F)F.O=C(O)C(F)(F)F [Compound 3, Tobramycin Homodimer 3] | non-hemolytic |
